# Measurements as given in EP3789378A1, “PIPERIDINES OR PIPERIDONES SUBSTITUTED WITH UREA AND HETEROARYL” (Grünenthal GmbH, priority 2019, dated 2021).
# Target: T1, h FPR2 (Homo sapiens, UniProt P25090)
# T1 construct: expressed in transfected cells
# T1 sequence (P25090 1-351): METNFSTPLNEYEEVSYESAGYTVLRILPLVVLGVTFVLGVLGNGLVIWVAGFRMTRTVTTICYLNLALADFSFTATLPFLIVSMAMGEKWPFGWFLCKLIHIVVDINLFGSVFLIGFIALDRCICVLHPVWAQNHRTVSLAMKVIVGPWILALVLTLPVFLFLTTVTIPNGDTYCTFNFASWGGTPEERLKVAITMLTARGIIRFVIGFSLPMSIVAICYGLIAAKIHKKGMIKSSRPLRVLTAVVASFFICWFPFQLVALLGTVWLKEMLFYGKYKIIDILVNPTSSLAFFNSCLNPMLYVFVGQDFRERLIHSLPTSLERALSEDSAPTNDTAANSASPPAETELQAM
# Assay: Agonistic activity in hFPR2-Aq-CHO cells (FLIPR Calcium 5 fluorescence assay)
# Type: cell-based
# Conditions: 11 point half log dilution, final assay concentration from 10µM
# Procedure, shortened: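 hFPR2-Aq-CHO cells were loaded with Calcium 5 dye for 30 min at 37 °C and equilibrated 10 min at room temperature. Compound (11 points, 10 µM to 100 pM final) was added in HBSS/HEPES/probenecid buffer pH 7.4. Fluorescence rise over basal across 5 min, relative to no-compound wells, gave EC50.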
row,EC50 [nM],SMILES
1,0.3,"COc1cnc([C@@H]2CN(CC(N)=O)CC[C@H]2NC(=O)Nc2ccc(Cl)cc2)c(F)c1 (relative stereo) [Ex-222, trans-2-{4'-[3-(4-chlorophenyl)-ureido]-3-fluoro-5-methoxy-3',4',5',6'-tetrahydro-2'H-[2,3']bipyridinyl-1'-yl}-acetamide]"
2,5,"COc1ccc([C@@H]2CN(c3cncc(C)n3)CC[C@H]2NC(=O)Nc2ccc(Cl)cc2)nc1 (relative stereo) [Ex-224, trans-1-(4-chloro-phenyl)-3-[5-methoxy-1'-(6-methyl-pyrazin-2-yl)-1',2',3',4',5',6'-hexahydro-[2,3']bipyridinyl-4'-yl]-urea]"
3,0.6,"COc1ccc([C@@H]2CN(CC3CCC(O)CC3)CC[C@H]2NC(=O)Nc2ccc(Cl)cc2)nc1 (relative stereo) [Ex-114, trans-1-(4-chloro-phenyl)-3-[1'-(4-hydroxy-cyclohexylmethyl)-5-methoxy-1',2',3',4',5',6'-hexahydro-[2,3']bipyridinyl-4'-yl]-urea]"
4,0.4,"COc1ccc([C@@H]2CN(CC3CCOCC3)CC[C@H]2NC(=O)Nc2ccc(Cl)cc2)nc1 (single isomer, unassigned) [Ex-51, trans-1-(4-chlorophenyl)-3-[3-(5-methoxypyridin-2-yl)-1-(oxan-4-ylmethyl)piperidin-4-yl]urea]"
5,11,"COCCCN1CC[C@@H](NC(=O)Nc2ccc(Cl)cc2)[C@H](c2ccc(Cl)s2)C1 (relative stereo) [Ex-91, trans-1-(4-chloro-phenyl)-3-[3-(5-chloro-thiophen-2-yl)-1-(3-methoxy-propyl)-piperidin-4-yl]-urea]"
6,0.2,"CNCCCN1CC[C@@H](NC(=O)Nc2ccc(Cl)cc2)[C@H](c2ccc(OC)cn2)C1 (relative stereo) [Ex-137, trans-1-(4-Chlorophenyl)-3-[3-(5-methoxy-pyridin-2-yl)-1-(3-methylamino-propyl)-piperidin-4-yl]-urea]"
7,1.4,"COc1ccc([C@@H]2CN(C(=O)C3CCN(C)CC3)CC[C@H]2NC(=O)Nc2ccc(Cl)cc2)nc1 (single isomer, unassigned) [Ex-187, trans-1-(4-chlorophenyl)-3-[3-(5-methoxypyridin-2-yl)-1-(1-methylpiperidine-4-carbonyl)piperidin-4-yl]urea]"
8,0.9,"COc1ccc([C@@H]2CN(C3(C(N)=O)CC3)CC[C@H]2NC(=O)Nc2ccc(Cl)cc2)nc1 (relative stereo) [Ex-181, trans-1-[4-[[(4-Chlorophenyl)-carbamoyl]amino]-3-(5-methoxy-pyridin-2-yl)-piperidin-1-yl]-cyclopropane-1-carboxylic acid amide]"
9,0.3,"COc1ccc([C@@H]2CN(Cc3cnn(C)c3)CC[C@H]2NC(=O)Nc2ccc(Cl)cc2)nc1 (relative stereo) [Ex-145, trans-1-(4-Chlorophenyl)-3-[3-(5-methoxy-pyridin-2-yl)-1-[(1-methyl-1H-pyrazol-4-yl)-methyl]-piperidin-4-yl]-urea]"

# The remaining lines, values behind:
row,SMILES,EC50 [nM]
1,"Cc1cc(N2CC[C@@H](NC(=O)Nc3cc(C)ns3)[C@H](c3ccc(Cl)cn3)C2)ncn1 (relative stereo) [Ex-31, trans-1-[5-chloro-1'-(6-methyl-pyrimidin-4-yl)-1',2',3',4',5',6'-hexahydro-[2,3']bipyridinyl-4'-yl]-3-(3-methyl-isothiazol-5-yl)-urea]",5
2,"COc1ccc([C@@H]2CN(CCO)CC[C@H]2NC(=O)Nc2cc(C)ns2)nc1 (relative stereo) [Ex-122, trans-1-[1-(2-Hydroxy-ethyl)-3-(5-methoxy-pyridin-2-yl)-piperidin-4-yl]-3-(3-methyl-isothiazol-5-yl)-urea]",3
3,"COc1ccc([C@@H]2CN(c3ccncn3)CC[C@H]2NC(=O)Nc2ccc(Cl)cc2)cn1 (relative stereo) [Ex-1, trans-1-(4-chloro-phenyl)-3-(6'-methoxy-1-pyrimidin-4-yl-1,2,3,4,5,6-hexahydro-[3,3']bipyridinyl-4-yl)-urea]",6
4,"COc1ccc([C@@H]2CN(C(=O)c3ccc(C(F)(F)F)nc3)CC[C@H]2NC(=O)Nc2ccc(Cl)cc2)nc1 (single isomer, unassigned) [Ex-100, trans-1-(4-chlorophenyl)-3-[3-(5-methoxypyridin-2-yl)-1-{[6-(trifluoromethyl)pyridin-3-yl]carbonyl}piperidin-4-yl]urea]",93
5,"Cc1cc(CN2CC[C@@H](NC(=O)Nc3ccc(Cl)cc3)[C@H](c3ccc(Cl)s3)C2)no1 (single isomer, unassigned) [Ex-44, trans-1-(4-chlorophenyl)-3-[3-(5-chlorothiophen-2-yl)-1-[(5-methyl-1,2-oxazol-3-yl)methyl]piperidin-4-yl]urea]",1
6,"CNCCN1CC[C@@H](NC(=O)Nc2cc(C)ns2)[C@H](c2ccc(OC)cn2)C1 (relative stereo) [Ex-134, trans-1-[3-(5-Methoxy-pyridin-2-yl)-1-(2-methylamino-ethyl)-piperidin-4-yl]-3-(3-methyl-isothiazol-5-yl)-urea]",2
7,"COc1ccc([C@@H]2CN(C(=O)C3COC3)CC[C@H]2NC(=O)Nc2cc(C)ns2)nc1 (relative stereo) [Ex-119, trans-1-[3-(5-Methoxy-pyridin-2-yl)-1-(oxetane-3-carbonyl)-piperidin-4-yl]-3-(3-methyl-isothiazol-5-yl)-urea]",9
8,COc1ccc([C@H]2CN(CC(F)F)CC[C@@H]2NC(=O)Nc2cc(C)ns2)nc1 [Ex-214],0.8
9,"Cc1ccc(N2CC[C@@H](NC(=O)Nc3cc(C)ns3)[C@H](c3ccc(Cl)cn3)C2)nn1 (relative stereo) [Ex-33, trans-1-[5-chloro-1'-(6-methyl-pyridazin-3-yl)-1',2',3',4',5',6'-hexahydro-[2,3']bipyridinyl-4'-yl]-3-(3-methyl-isothiazol-5-yl)-urea]",11
10,"O=C(Nc1ccccc1)N[C@@H]1CCN(CC2CNC2)C[C@H]1c1ccc(Cl)cn1 (relative stereo) [Ex-186, trans-1-(1'-azetidin-3-ylmethyl-5-chloro-1',2',3',4',5',6'-hexahydro-[2,3']bipyridinyl-4'-yl)-3-phenyl-urea]",27
11,"COc1ccc([C@@H]2CN(C(=O)c3ccc(C(F)(F)F)nc3)CC[C@H]2NC(=O)Nc2ccc(C#N)cc2)nc1 (relative stereo) [Ex-141, trans-1-(4-Cyano-phenyl)-3-[3-(5-methoxy-pyridin-2-yl)-1-[6-(trifluoromethyl)-pyridine-3-carbonyl]-piperidin-4-yl]-urea]",1.2
12,"O=C(Nc1ccc(Cl)cc1)N[C@@H]1CCN(c2ccc(F)cc2)C[C@H]1c1ccc(Cl)cn1 (relative stereo) [Ex-12, trans-1-[5-chloro-1'-(4-fluoro-phenyl)-1',2',3',4',5',6'-hexahydro-[2,3']bipyridinyl-4'-yl]-3-(4-chlorophenyl)-urea]",9
13,"COC1CCC(C(=O)N2CC[C@@H](NC(=O)Nc3ccc(Cl)cc3)[C@H](c3ccc(Cl)s3)C2)CC1 (relative stereo) [Ex-107, trans-1-(4-chloro-phenyl)-3-[3-(5-chloro-thiophen-2-yl)-1-(4-methoxy-cyclohexanecarbonyl)-piperidin-4-yl]-urea]",46

# Same assay, conditions: agonistic response at 0.1µM
row,activation at 0.1 µM [%],SMILES
1,10,"Cc1cc(CN2CC[C@@H](NC(=O)Nc3ccc(Cl)cc3)[C@H](c3ccc(Cl)s3)C2)no1 (relative stereo) [Ex-45, trans-1-(4-chlorophenyl)-3-[3-(5-chlorothiophen-2-yl)-1-[(5-methyl-1,2-oxazol-3-yl)methyl]piperidin-4-yl]urea]"
